This note sets out measurements from patent US6855512B2, “Methods for identifying inhibitors of cytochrome P450RAI” (Allergan, Inc., priority 2000, dated 2005).

One assay deals with T1, RARα (Homo sapiens, UniProt P10276).
T1 sequence (P10276 183-417 limits assumed): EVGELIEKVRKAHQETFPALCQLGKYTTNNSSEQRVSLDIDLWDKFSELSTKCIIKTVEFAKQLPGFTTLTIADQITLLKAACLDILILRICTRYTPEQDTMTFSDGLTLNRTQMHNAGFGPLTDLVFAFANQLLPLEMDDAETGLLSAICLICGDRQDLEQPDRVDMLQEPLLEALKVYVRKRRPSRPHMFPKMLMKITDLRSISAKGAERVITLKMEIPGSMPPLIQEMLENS
Description: chimeric receptor transactivation assay, RARα. In kind it is cell-based. To be noted: EC50 line of EC50/(EFFICACY)/Kd, read-out: RAR α EC50. The source says: (§1) Assays described below measure the ability of a compound to bind to, and/or activate various retinoid receptor subtypes. When in these assays a compound binds to a given receptor subtype and activates the transcription of a reporter gene through that subtype, then the compound is considered an agonist of that receptor subtype. […] In the below described assays the ability of the compounds to bind to RARα, RARβ, RARγ, RXRα, RXRβ and RXRγ receptors, and the ability or inability of the compounds to activate transcription of a reporter gene through these receptor subtypes can be tested.
(§2) The results obtained in this assay are expressed in EC50 numbers, as they are also in the chimeric receptor transactivation assay. The results of ligand binding assay are expressed in Kd numbers.

For assay [1], the target named is T2, RARγ (Homo sapiens, UniProt P13631).
T2 sequence (P13631 185-454 limits assumed): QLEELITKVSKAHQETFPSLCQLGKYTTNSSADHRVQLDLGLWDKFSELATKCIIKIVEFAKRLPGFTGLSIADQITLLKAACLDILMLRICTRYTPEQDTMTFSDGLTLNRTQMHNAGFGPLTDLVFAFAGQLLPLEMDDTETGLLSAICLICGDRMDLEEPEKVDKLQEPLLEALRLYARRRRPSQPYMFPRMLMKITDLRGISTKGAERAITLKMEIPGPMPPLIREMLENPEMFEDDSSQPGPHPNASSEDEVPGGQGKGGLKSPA
The experiment in a line: chimeric receptor transactivation assay, RARγ. Particulars: EC50 line of EC50/(EFFICACY)/Kd, read-out: RAR γ EC50. In kind it is cell-based.
Description: as §1, §2

Assay [2] addresses T3, RARγ (Homo sapiens, UniProt P13631).
T3 sequence (P13631 1-454): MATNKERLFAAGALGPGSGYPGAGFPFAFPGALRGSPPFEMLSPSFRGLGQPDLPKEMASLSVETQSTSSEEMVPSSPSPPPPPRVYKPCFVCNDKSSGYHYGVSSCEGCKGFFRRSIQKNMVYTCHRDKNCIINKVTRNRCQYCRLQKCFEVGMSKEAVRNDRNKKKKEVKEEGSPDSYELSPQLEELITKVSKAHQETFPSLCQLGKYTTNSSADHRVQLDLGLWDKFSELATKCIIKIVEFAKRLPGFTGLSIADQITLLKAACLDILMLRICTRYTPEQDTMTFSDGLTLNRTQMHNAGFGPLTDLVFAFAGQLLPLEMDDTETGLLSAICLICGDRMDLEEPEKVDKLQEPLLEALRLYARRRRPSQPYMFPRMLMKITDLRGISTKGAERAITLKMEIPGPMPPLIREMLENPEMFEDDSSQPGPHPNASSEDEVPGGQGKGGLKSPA
Description: ligand binding assay, RARγ. To be noted: Kd line of EC50/(EFFICACY)/Kd, K = thousand, read-out: RAR γ Kd.
Description: as §1, §2

Take `CC1(C)CC(C)(C)c2cc(C#Cc3ccc(C(=O)O)cc3)ccc2O1` [Compound 201]: the EC50 is greater than 10 µM at RARα and 0.18 µM at RARγ [1]. Also, the Kd at RARγ [2] amounted to 4.39 µM.
